What was measured:
VERPE = assay: Post-emergence action against VERPE, 1.28 kg/ha; format: in vivo, Veronica persica; details: dosage 1280 g/ha, visual rating about 3 weeks after treatment vs untreated controls (100% = plants died)
In short: (§1)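 Greenhouse pot test, sandy loam; weeds sprayed post-emergence at one-leaf stage (2–3 weeks after sowing) with WP or EC formulation plus 0.5% additive, 600 l/ha water. Visual rating after about 3 weeks versus untreated controls, 100% = plants dead, 0% = like control.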

PHBPU = assay: Post-emergence action at 320 g/ha against PHBPU; format: in vivo; details: visual rating about 3 weeks after treatment vs untreated controls
In short: (§2)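 Greenhouse-grown plants sprayed post-emergence at the one-leaf stage, 2 to 3 weeks after sowing, with WP or EC formulations plus 0.5% additive at 600 l/ha water, at 320 g/ha. Activity rated visually after about 3 weeks versus untreated controls (100% = plants died, 0% = like control).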

SETVI = assay: Post-emergence action at 320 g/ha against SETVI; format: in vivo, Setaria viridis; details: visual rating about 3 weeks after treatment vs untreated controls
In short: as §2

MATIN [1] = assay: Pre-emergence action at 320 g/ha against MATIN; format: in vivo, Tripleurospermum inodorum (Matricaria inodora); details: visual scoring after about 3 weeks vs untreated controls
In short: (§3)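 Application: aqueous WP or EC with 0.5% additive on soil covering seeds, 600 l/ha. Read-out: visual percent damage after ~3 weeks in greenhouse, untreated pots as reference.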

ALOMY [2] = assay: Post-emergence action against ALOMY, 1.28 kg/ha; format: in vivo, Alopecurus myosuroides; details: dosage 1280 g/ha, visual rating about 3 weeks after treatment vs untreated controls
In short: as §1

STEME = assay: Post-emergence action against STEME, 1.28 kg/ha; format: in vivo, Stellaria media; details: dosage 1280 g/ha, visual rating about 3 weeks after treatment vs untreated controls (100% = plants died)
In short: as §1

AMARE [3] = assay: Post-emergence action at 320 g/ha against AMARE; format: in vivo, Amaranthus retroflexus; details: visual rating about 3 weeks after treatment vs untreated controls
Description: Accordingly, the compounds of the invention have good herbicidal action against a broad spectrum of weed grasses and broad-leaved weeds and are therefore suitable for controlling unwanted vegetation by the post-emergence method. • b) Seeds of monocotyledonous and dicotyledonous weeds and crop plants are placed in sandy loam in plastic or organic planting pots, covered with soil and cultivated in a greenhouse under controlled growth conditions. 2 to 3 weeks after sowing, the test plants are treated at the one-leaf stage. The compounds of the invention, formulated in the form of wettable powders (WP) or as emulsion concentrates (EC), are then sprayed onto the green parts of the plants as aqueous suspension or emulsion with addition of 0.5% additive at a water application rate of 600 l/ha (converted). After the test plants have been kept in the greenhouse under optimum growth conditions for about 3 weeks, the activity of the preparations is rated visually in comparison to untreated controls. For example, 100% activity=the plants have died, 0% activity=like control plants. Tables 39 to 49 below show the effects of selected compounds of the general formula (I) according to Tables 1 and 2 on various harmful plants and at an application rate corresponding to 320 g/ha, which were obtained by the experimental procedure mentioned above.

AMARE [4] = assay: Post-emergence action against AMARE, 1.28 kg/ha; format: in vivo, Amaranthus retroflexus; details: dosage 1280 g/ha, visual rating about 3 weeks after treatment vs untreated controls (100% = plants died)
In short: as §1

DIGSA [5] = assay: Pre-emergence action against DIGSA, 1280 g/ha; format: in vivo, Digitaria sanguinalis; details: visual scoring after about 3 weeks vs untreated controls, 100% = plants have died, 0% = like control plants
In short: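 Sandy loam pots, seeds covered with soil; aqueous WP/EC spray on covering soil, 0.5% additive, 600 L/ha. Greenhouse growth, good conditions. Readout: visual % activity at ~3 weeks (0% = like control, 100% = dead).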

LOLRI = assay: Pre-emergence action at 320 g/ha against LOLRI; format: in vivo, Lolium rigidum; details: visual scoring after about 3 weeks vs untreated controls
In short: as §3

ECHCG = assay: Post-emergence action against ECHCG, 1.28 kg/ha; format: in vivo, Echinochloa crus-galli; details: dosage 1280 g/ha, visual rating about 3 weeks after treatment vs untreated controls
In short: as §1

MATIN [6] = assay: Post-emergence action against MATIN, 1.28 kg/ha; format: in vivo, Tripleurospermum inodorum (Matricaria inodora); details: dosage 1280 g/ha, visual rating about 3 weeks after treatment vs untreated controls (100% = plants died)
In short: as §1

DIGSA [7] = assay: Post-emergence action at 320 g/ha against DIGSA; format: in vivo, Digitaria sanguinalis; details: dosage 320 g/ha, visual rating about 3 weeks after treatment vs untreated controls (100% = plants died)
In short: as §2

ALOMY [8] = assay: Post-emergence action against ALOMY, 320 g/ha; format: in vivo, Alopecurus myosuroides; details: dosage 320 g/ha, visual rating about 3 weeks after treatment vs untreated controls (100% = plants died)
In short: as §2

ABUTH = assay: Post-emergence action against ABUTH, 1.28 kg/ha; format: in vivo, Abutilon theophrasti; details: dosage 1280 g/ha, visual rating about 3 weeks after treatment vs untreated controls (100% = plants died)
In short: as §1

POLCO = assay: Post-emergence action at 320 g/ha against POLCO; format: in vivo, Fallopia convolvulus (Polygonum convolvulus); details: visual rating about 3 weeks after treatment vs untreated controls
In short: as §2

SMILES | Post-emergence action against VERPE (VERPE) [%] | Post-emergence action against PHBPU in % (PHBPU) [%] | Post-emergence action against SETVI in % (SETVI) [%] | Pre-emergence action against MATIN in % (MATIN [1]) [%] | Post-emergence action against ALOMY (ALOMY [2]) [%] | Post-emergence action against STEME (STEME) [%] | Post-emergence action against AMARE in % (AMARE [3]) [%] | Post-emergence action against AMARE (AMARE [4]) [%] | Pre-emergence action against DIGSA (DIGSA [5]) [%] | Pre-emergence action against LOLRI in % (LOLRI) [%] | Post-emergence action against ECHCG (ECHCG) [%] | Post-emergence action against MATIN (MATIN [6]) [%] | Post-emergence action at 320 g/ha against DIGSA in % (DIGSA [7]) [%] | Post-emergence action against ALOMY (ALOMY [8]) [%] | Post-emergence action against ABUTH (ABUTH) [%] | also measured
C[C@@H](Oc1nn(-c2ccccc2F)c(-c2cncnc2)c1Br)C(=O)O [VI-012] | 90 | 80 | 90 | 90 | 100 | 90 | 80 | 90 | 90 | 90 | 100 | – | – | – | – | –
COC(=O)[C@@H](C)Oc1nn(-c2ccccc2)c(-c2cncnc2)c1Br [VI-013] | 100 | 80 | 90 | 90 | 100 | 100 | 90 | 90 | 100 | 90 | 100 | 100 | 90 | 80 | 90 | –
COC(=O)COc1nn(-c2ccc(F)cc2)c(-c2ccc(F)nc2)c1Br [VII-002] | – | 90 | 80 | 100 | – | 90 | – | – | – | – | 90 | 90 | – | 100 | 90 | Post-emergence action against POLCO in % (POLCO): 80%
COC(=O)[C@@H](C)Oc1nn(-c2ccccc2)c(-c2cccnc2)c1Br [VII-008] | 100 | 80 | 100 | 100 | 100 | 100 | 90 | 90 | 100 | 100 | 100 | 90 | 80 | 100 | 90 | –
COC(=O)C(C)Oc1nn(-c2ccccc2)c(-c2ccc(F)nc2)c1Br (stereo not shown) [VII-014] | 90 | – | 100 | – | 100 | 90 | 90 | 90 | 100 | 100 | 90 | – | 80 | 90 | – | Post-emergence action against POLCO in % (POLCO): 80%
COC(=O)COc1nn(-c2ccc(F)cc2)c(-c2cccnc2)c1Br [VII-028] | 90 | 90 | 80 | 80 | – | 100 | 80 | 100 | – | – | 90 | 90 | – | 80 | 90 | –
CCC(Oc1nn(-c2ccccc2F)c(-c2ccc(F)nc2)c1Br)C(=O)OC (stereo not shown) [VII-029] | 90 | – | – | 90 | 100 | 100 | – | 90 | 100 | 90 | 100 | – | – | 100 | – | Post-emergence action against POLCO in % (POLCO): 80%
COC(=O)COc1nn(-c2cc(F)ccc2F)c(-c2ccc(F)nc2)c1Br [VII-089] | 90 | 80 | – | 90 | 100 | 100 | 80 | 90 | 100 | 100 | 90 | 90 | 90 | 90 | 90 | –
COC(=O)[C@@H](C)Oc1nn(-c2cc(F)ccc2F)c(-c2cncc(F)c2)c1Br [VII-132] | 90 | 90 | – | 90 | 100 | – | 90 | 100 | 100 | 100 | 100 | 90 | 90 | 90 | 90 | –
CCOC(=O)COc1nn(-c2ccccc2F)c(-c2ccnc(F)c2)c1Br [VIII-003, Ethyl {[4-bromo-1-(2-fluorophenyl)-5-(2-fluoropyridin-4-yl)-1H-pyrazol-3-yl]oxy}acetate] | – | 80 | – | – | – | 100 | – | 90 | – | – | – | – | – | 90 | 90 | pest or weed control at 1280 g/ha (VERPE; Veronica persica, 504 h): 90%; pest or weed control at 320 g/ha (MATIN [1]; Tripleurospermum inodorum, 504 h): 90%; pest or weed control at 320 g/ha (DIGSA [7]; Digitaria sanguinalis, 504 h): 80%; pest or weed control at 320 g/ha (POLCO; Fallopia convolvulus, 504 h): 80%; pest or weed control at 320 g/ha (LOLRI; Lolium rigidum, 504 h): 90%; pest or weed control at 1280 g/ha (ECHCG; Echinochloa crus-galli, 504 h): 100%
COC(=O)[C@@H](C)Oc1nn(-c2ccccc2F)c(-c2ccnc(F)c2)c1Br [VIII-006] | 90 | – | 90 | 90 | 100 | 100 | 80 | 100 | 100 | 100 | 90 | 100 | – | 100 | – | –
